The source of these data is patent US20030130264A1 (priority 2001, published 2003).

In series [1] the test system is recombinant human cytomegalovirus (HCMV). As to the kind of experiment: microbe, parasite or virus in culture. The series is classed as cell-based. Conditions: Human betaherpesvirus 5, HFF. An excerpt:
For the assessment of activity against human CMV, a method was used which is similar to that described in Kohler, et al. (1994) J. Virol. 68:6589-6597. Briefly, a recombinant human cytomegalovirus (HCMV) was made containing a marker gene (luciferase) under the control of the promoter for the late 28 kDa viral structural phosphoprotein pp28. Human foreskin fibroblast (HFF) cells were infected with the recombinant HCMV virus (moi (multiplicity of infection) 5), placed into 96-well plates, and cultured under standard cell-culture conditions. […] The level of luciferase expression was measured 24 h after treatment with the test compounds. […] As an additional control, the cytotoxicity of test compounds on untreated HFF cells was also evaluated in cultured cell growth experiments.

The term IC50 denotes the midpoint of a concentration-inhibition curve. Consider `Cc1nc(-n2ccnc2C)nc(N(C)Cc2ccccc2)c1[N+](=O)[O-]` [f], for which the IC50 in series [1] turned out to be 6000 nM.

Turning to `CCCCN(Cc1ccccc1)c1nc(C)c([N+](=O)[O-])c(-n2ccnc2C)n1` [Compound m], the half-inhibitory concentration (IC50) in series [1] was determined as 2000 nM.

Consider `Cc1nc(NC2Cc3ccccc3C2)nc(-n2ccnc2C)c1[N+](=O)[O-]` [2-(2-indanamino)-4-(2-methylimidazoyl)-6-methyl-5-nitropyrimidine], for which, in series [1], the IC50 is greater than 500 nM.

In the case of `Cc1nc(NC2CCc3c(F)cc(F)cc32)nc(-n2ccnc2C)c1[N+](=O)[O-]` (centres unmarked) [2-(4,6-difluoro-1-indanamino)-4-(2-methylimidazolyl)-6-methyl-5-nitropyrimidine], the half-inhibitory concentration (IC50) in series [1] lay within 100 to 500 nM.

As to `CCCCN(CC1CC1)c1nc(C)c([N+](=O)[O-])c(-n2ccnc2C)n1` [Compound q], the IC50 in series [1] is 3000 nM.

As for `Cc1nc(NCc2ccc(C(F)(F)F)cc2)nc(-n2ccnc2C)c1[N+](=O)[O-]` [2-(4-trifluoromethylbenzylamino)-4-(2-methylimidazol-1-yl)-6-methyl-5-nitropyrimidine], the concentration for half-maximal inhibition (IC50) in series [1] lay in the range of 100 to 500 nM.

On to `Cc1nc(N2CCC(C)CC2)nc(-n2ccnc2C)c1[N+](=O)[O-]` [Compound p], for which the IC50 in series [1] was 300 nM.

`Cc1nc(NC2CCc3c(F)cc(F)cc32)nc(-n2ccnc2)c1[N+](=O)[O-]` (centres unmarked) [2-(4,6-difluoro-1-indanamino)-4-imidazolyl-6-methyl-5-nitropyrimidine]: the IC50 in series [1] fell in the range of 100 to 500 nM.

Consider `Cc1cn(-c2nc(N(C)c3ccccc3)nc(C)c2[N+](=O)[O-])cn1` [t], for which the IC50 in series [1] came out at 10000 nM.

As for `Cc1nc(NC2Cc3ccccc3C2)nc(-n2ccnc2)c1[N+](=O)[O-]` [2-(2-indanamino)-4-imidazolyl-6-methyl-5-nitropyrimidine], the half-maximal inhibitory concentration (IC50) in series [1] was greater than 500 nM.

For orientation: melting point means the temperature of the solid-liquid transition. `CC[C@H]1CCCCC1Nc1nc(C)c([N+](=O)[O-])c(-n2ccnc2)n1` (some centres unmarked) came in with a melting point of 123 to 124 °C.

For `CCCOc1nc(C)c([N+](=O)[O-])c(-n2ccnc2C)n1` [x, 2-(propyloxy)-4-(2-methylimidazol-1yl)-6-methyl-5-nitropyrimidine], in series [1], the concentration for half-maximal inhibition (IC50) is greater than 500 nM.

Take `Cc1nc(N(C)c2ccc(Cl)cc2)nc(-n2ccnc2C)c1[N+](=O)[O-]` [g]: in series [1], the concentration for half-maximal inhibition (IC50) was 800 nM.

Turning to `CCC(Nc1nc(C)c([N+](=O)[O-])c(-n2ccnc2)n1)c1ccccc1` (centres unmarked) [2-(1-phenyl-1-propylamino)-4-(imidazol-1-yl)-6-methyl-5-nitropyrimidine], the IC50 in series [1] was greater than 500 nM.

For `CCc1nccn1-c1nc(NC2CCc3c(F)cc(F)cc32)nc(C)c1[N+](=O)[O-]` (centres unmarked) [2-(4,6-difluoro-1-indanamino)-4-(2-ethylimidazolyl)-6-methyl-5-nitropyrimidine], the IC50 in series [1] was in the range of 100 to 500 nM.

Molecule `Cc1nc(NC2Cc3ccccc3C2)nc(-n2ccnc2C)c1[N+](=O)[O-].Cl` displayed a melting point of 184 to 185 °C.

In the case of `CCc1nc(N(C)c2ccccc2)nc(-n2ccnc2C)c1[N+](=O)[O-]` [c], in series [1], the IC50 is 100 nM.

For the molecule `Cc1nc(N(Cc2ccccc2)Cc2ccccc2)nc(-n2ccnc2C)c1[N+](=O)[O-]` [Compound o], the half-inhibitory concentration (IC50) in series [1] worked out at 2000 nM.

Take `Cc1nccn1-c1nc(N(C)c2ccccc2)nc(C(C)C)c1[N+](=O)[O-]` [h]: the IC50 in series [1] came to 300 nM.

In the case of `CCN(CC)c1nc(C)c([N+](=O)[O-])c(-n2ccnc2C)n1` [k], the 50% inhibitory concentration (IC50) in series [1] was 1000 nM.
